From patent US20060020036A1, “Methods and compositions to promote bone homestasis” (priority 2004, published 2006) come the findings set out here.

Entries after “also recorded” stand apart in the source; their conditions may differ.

For this experiment, the target named is T1, NR1H3 (Homo sapiens, UniProt Q13133).
T1 construct: amplification of the complete open reading frame from ATG start codon to the stop codon of drugable genes; expressed in transfected cells; host or cells: primary human mesenchymal progenitor cells (MPCs), transduced with Ad5-NR1H3 and Ad-hCAR
T1 sequence (Q13133 1-447): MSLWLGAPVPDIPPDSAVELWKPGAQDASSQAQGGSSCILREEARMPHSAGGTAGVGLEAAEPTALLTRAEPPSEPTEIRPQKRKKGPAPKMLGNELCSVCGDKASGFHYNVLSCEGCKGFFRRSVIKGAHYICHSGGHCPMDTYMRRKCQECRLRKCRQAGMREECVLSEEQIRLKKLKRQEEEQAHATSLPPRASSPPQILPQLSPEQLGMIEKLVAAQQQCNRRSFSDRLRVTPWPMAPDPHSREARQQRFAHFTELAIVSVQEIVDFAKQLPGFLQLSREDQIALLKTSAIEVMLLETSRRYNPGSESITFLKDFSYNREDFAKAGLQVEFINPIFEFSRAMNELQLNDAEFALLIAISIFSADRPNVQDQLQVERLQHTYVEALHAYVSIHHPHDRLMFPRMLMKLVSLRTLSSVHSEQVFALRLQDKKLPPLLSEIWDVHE
Put plainly: AP assay: MPCs infected with Ad-NR1H3 and treated with ligand. Type of experiment: cell-based. The conditions noted are these: for up-regulation of endogenous alkaline phosphatase (AP) activity, dose-response: MPCs infected with Ad-NR1H3, ligand at different concentrations. Here is the method: Mesenchymal progenitor cells (MPCs) differentiate into osteoblasts in the presence of appropriate factors (e.g. BMP2). An assay to screen for such factors is developed by monitoring the activity of alkaline phosphatase (AP) enzyme, an early marker in the osteoblast differentiation program. MPCs are seeded in 384 well plates and simultaneously co-infected one day later with adenoviruses encoding the human coxsackie and adenovirus receptor (hCAR; Ad-hCAR) and individual adenoviruses (Ad-cDNA) from the arrayed adenoviral knock-in collection containing cDNA sequences corresponding to genes from “drugable” classes like GPCR's, kinases, proteases, phosphodiesterases and nuclear hormone receptors (the FLeXSelect collection). The majority of these cDNAs are obtained by a PCR-based approach. Briefly, PCR primers are designed for amplification of the complete open reading frame from ATG start codon to the stop codon of drugable genes, based on sequence data present in the RefSeq database. Primers are mixed in an arrayed format at a PCR ready concentration in 96 well plates. As a template for the PCR reactions, placental, fetal liver, fetal brain and spinal cord cDNA libraries are used (from Invitrogen or Edge Biosystems). For the genes encoded by a single exon, PCR reactions are also performed on human genomic DNA. After the amplification reactions, the PCR products are purified with a 96-well PCR clean-up system (Wizard magnesil, Promega, Madison, Wis., USA), digested with the appropriate restriction enzymes (AscI, NotI or SalI restriction sites are included in the primers) and directly cloned into the adenoviral adapter plasmid pIspAdAdapt-10-Zeo (described in U.S. Pat. No. 6,340,595) using DNA ligation kit version 2 (TaKaRa, Berkeley, CA, USA). After a transformation and selection step, multiple clones per gene, one of which is sequence verified, are used for the preparation of plasmid DNA and subsequent generation of adenovirus according to the procedure described in WO99/64582.
Cellular AP activity is determined 6 days after the infection (or ligand addition—see below). The principle of the assays is depicted in FIG. 2. […] Six days after the start of infection or treatment with a ligand, endogenous alkaline phosphatase activity is measured following addition of 4-methylumbelliferyl […] (MUP) substrate.
The stocks of the Ad-control-viruses are generated in 96 well plates (control plate). […] Up-regulation of alkaline phosphatase is read at 6 days post infection (6 dpi): 15 μl 4-Methylumbelliferyl-phosphate (MUP, Sigma) is added to each well, the plates are incubated for 15 min at 37° C. and monitored for AP activity using a fluorescence plate reader (Fluostar, BMG). […]

Turning to `O=S(=O)(c1ccccc1)N(CC(F)(F)F)c1ccc(C(O)(C(F)(F)F)C(F)(F)F)cc1` [T0901317, N-(2,2,2-trifluoroethyl)-N-[4-[2,2,2-trifluoro-1-hydroxy-1-(trifluoromethyl)ethyl]phenyl]-benzenesulfonamide], the “up-regulation of endogenous alkaline phosphatase (AP) activity, dose-response” value is given as “dose-dependently increase the up-regulation of the endogenous alkaline phosphatase activity; also recorded: AP activity is up-regulated; also recorded: score well”. Moreover, the “induction of AP activity in different MPC isolates” value (MPCs from 4 different donors, Ad-NR1H3 MOI 2500 + T0901317, 6 days) is listed as “induce AP activity to similar extents in all 4 MPC isolates tested; also recorded: induce AP activity independent of the MPC isolate”.
As for `CC(=O)Oc1ccc2c(c1)[C@@]1(C)CCC[C@](C)(C(=O)OC(=O)[C@@]3(C)CCC[C@]4(C)c5cc(OC(C)=O)ccc5CC[C@@H]34)[C@@H]1CC2` [APD, acetyl podocarpic dimer], the “up-regulation of endogenous alkaline phosphatase (AP) activity, dose-response” value is “dose-response relation is observed; also recorded: AP activity is up-regulated; also recorded: Dose-dependent up-regulation of AP activity”.
The same measure, in the same setting: the value for `O=C(O)Cc1cccc(OCCCN(Cc2cccc(C(F)(F)F)c2Cl)CC(c2ccccc2)c2ccccc2)c1` [GW3965, 2-(3-(3-(N-(2-chloro-3-(trifluoromethyl)benzyl)-N-(2,2-diphenylethyl)amino)propoxy)phenyl)acetic acid] was “dose-response relation is observed; also recorded: AP activity is up-regulated; also recorded: Dose-dependent up-regulation of AP activity”.
